Structures are written as SMILES.

In one data set the test system is FSHD patients. Description: Safety and tolerability monitoring in clinical study. The format is in vivo, human. The note with it: intramuscular injection into the gluteal muscle, when properly given. An excerpt: Safety outcome measures included (1) Changes from baseline in laboratory test results, vital signs, and EKG results, (2) Occurrence of serious adverse events, and (3) Occurrence of non-serious adverse events. Exploratory efficacy outcome measures included the following: • 1. Composite Quantitative Muscle Testing (QMT) score • 2. Composite Manual Muscle Testing (MMT) score • 3. FSHD Clinical Outcome Measure (FSHD-COM), total and individual test scores • 4. FSHD-Health Index (FSHD-HI), disease-specific patient-reported outcome measure • 5. Forced Vital Capacity (FVC) • 6. Epworth Sleepiness Scale • 7. Fatigue Severity Scale • 8. Dual Energy X-Ray Absorptiometry (DEXA) Lean Body Mass (total and regional) • 9. PROMIS-57 • 10. Individualized Neuromuscular Quality of Life Questionnaire (INQoL) • 11. Beck Depression Inventory (BDI) • 12. Six minute walk distance
For safety assessments and adverse event assessments, various clinical safety Laboratory tests were carried out. For treatment-specific assessments, the subjects were monitored for the following treatment-related events: • peripheral edema • carpal tunnel syndrome • gynecomastia • insulin resistance • arthralgia • increased erythropoiesis • reduced HDL cholesterol • elevated prostate specific antigen • elevated blood pressure […]

Data set [1] has as its system patients with myotonic dystrophy. The note with it: 40 patients with myotonic dystrophy; cited from earlier work.
In data set [2] the test system is adult muscular dystrophy population. The conditions noted are these: heterogeneous adult muscular dystrophy group with normal baseline testosterone; after 3 months of treatment; cited from earlier work.

As to `CCCCCCC(=O)O[C@H]1CC[C@H]2[C@@H]3CCC4=CC(=O)CC[C@]4(C)[C@H]3CC[C@]12C` [testosterone enanthate, Testosterone enanthate], the “Tolerability of intramuscular injections” value with FSHD patients is listed as “well tolerated”.
In the case of `C[C@]12CC[C@H]3[C@@H](CCC4=CC(=O)CC[C@@]43C)[C@@H]1CC[C@@H]2O` [testosterone, 17-β-hydroxyandrost-4-en-3-one], the “Safety and efficacy of testosterone in isolation” value in data set [1] was “safe, tolerable, and able to improve both creatinine excretion and lean body mass while not statistically improving overall strength”. Further, the “Safety and body composition effects of testosterone in isolation” value in data set [2] was “safe and increase lean body mass, reduce body fat, and improve basal metabolic rate”.

Source of the values: patent US20250325560A1, “METHODS FOR IMPROVING MUSCLE MASS, STRENGTH, OR FUNCTION WITH A COMBINATION OF TESTOSTERONE AND GROWTH HORMONE” (University of Rochester, priority 2022, published 2025).
